Laboratory results published in patent US20120010075A1 (priority 2009, published 2012).
Read-outs that look alike come from different tables or passages of the source.

Columns and labels:
[1] = system: Ustilago maydis; test: In vitro fungitoxicity of hydrazones with and without copper towards Ustilago maydis (Example 29, Table 4); assay type: cell-based; settings: CuCl2, 10 μM, no test compound
[2] = system: Plasmopara viticola; parameters: species or system Plasmopara viticola on grape; settings: in vivo
[3] = system: Phytophthora infestans; assay type: in vivo, Phytophthora infestans on tomato; settings: Late blight, 160 μM
[4] = system: Phytophthora capsici; test: Effect of copper on fungitoxicity of metal-hydrazone complexes towards Phytophthora capsici (Example 34, Table 10); assay type: cell-based; settings: CuCl2, 50 μM, no test compound, across experiments
[5] = system: Septoria tritici isolate USA-184; test: In vitro fungitoxicity of hydrazones with and without copper towards Septoria tritici (Example 30, Table 5); assay type: cell-based; settings: no test compound
[6] = system: Leptosphaeria nodorum (LEPTNO); test: Effect of copper on fungitoxicity of metal-hydrazone complexes towards Leptosphaeria nodorum (Example 33, Table 9); assay type: cell-based; settings: CuCl2, 10 μM, no test compound, across experiments
[7] = system: Phytophthora capsici; test: In vitro fungitoxicity of hydrazones with and without copper towards Phytophthora capsici (Example 28, Table 3); assay type: cell-based; settings: CuCl2, 50 μM, no test compound, across experiments
[8] = system: Leptosphaeria nodorum (LEPTNO); test: Fungitoxicity of copper-hydrazone mixtures of different ratios towards Leptosphaeria nodorum (Example 35, Table 11); assay type: cell-based
Method: In vitro fungitoxicity assays against LEPTNO were conducted using the copper-minus medium described in Example 26. Mixtures containing hydrazone compound 16 at 200 nM and CuCl2 at 0.2 μM (1:1 molar ratio), 0.8 μM (1:4 ratio), 12.5 μM (1:62.5 ratio) and 200 μM (1:1000 ratio) were prepared in copper-minus medium. Two-fold dilution series of these mixtures were then prepared in 100 μL aliquots of copper-minus medium in flat-bottomed 96-well microtiter plates. A suspension of LEPTNO spores in copper-minus medium at 2×10^5 spores per mL was prepared as in Example 26. Microtiter plates were inoculated with 100 μL of the spore suspension and the plates were incubated at 25° C. for 72 h before assessing fungal growth by measuring light scattering in a NepheloStar plate reader.
(§1) Growth inhibition was determined by comparing growth in the presence of copper-hydrazone mixture with growth in control wells lacking the copper-hydrazone mixture. EC50 values were calculated from dose-response curves, and are expressed as the amounts of hydrazone or copper in each test mixture at the rates providing 50% inhibition of growth as compared to a control lacking the copper-hydrazone mixture.

[9] = system: Leptosphaeria nodorum (LEPTNO); test: In vitro fungitoxicity of hydrazones with and without copper towards Leptosphaeria nodorum (Example 26); assay type: cell-based; settings: CuCl2 10 μM alone, no test compound; copper-plus versus copper-minus medium across experiments
[10] = system: Phytophthora capsici; test: Fungitoxicity of copper-hydrazone mixtures of different ratios towards Phytophthora capsici (Example 36, Table 12); assay type: cell-based
Method: In vitro fungitoxicity assays against Phytophthora capsici were conducted using the copper-minus AS medium described in Example 28. Mixtures containing hydrazone compound 16 at 200 nM and CuCl2.2H2O at 0.2 μM (1:1 molar ratio), 0.8 μM (1:4 ratio), 3.2 μM (1:16 ratio), 12.5 μM (1:62.5 ratio), 50 μM (1:200 ratio) and 200 μM (1:1000 ratio) were prepared in copper-minus AS medium. Two-fold dilution series of these mixtures were then prepared in 100 μL aliquots of copper-minus AS medium in flat-bottomed 96-well microtiter plates. A suspension of P. capsici zoospores in Chelex-treated water at 5×10^4 spores per mL was prepared as in Example 28. Microtiter plates were inoculated with 100 μL of the spore suspension and incubated at 25° C. for 48 h before assessing fungal growth by measuring light scattering in a NepheloStar plate reader.
as §1

[11] = system: Phytophthora infestans; assay type: in vivo, Phytophthora infestans on tomato (Outdoor Girl); settings: no hydrazone
[12] = CuCl2 without hydrazone, read-out: CuCl2 EC50
[13] = mixture with hydrazone compound 16, Hydrazone:Cu ratio 1 to 1, read-out: CuCl2 EC50 (amount of CuCl2 in mixture at EC50)
[14] = mixture with hydrazone compound 16, Hydrazone:Cu ratio 1 to 4, read-out: CuCl2 EC50 (amount of CuCl2 in mixture at EC50)
[15] = mixture with hydrazone compound 16, Hydrazone:Cu ratio 1 to 62.5, read-out: CuCl2 EC50 (amount of CuCl2 in mixture at EC50)
[16] = mixture with hydrazone compound 16, Hydrazone:Cu ratio 1 to 1000, read-out: CuCl2 EC50 (amount of CuCl2 in mixture at EC50)

For `O.O.[Cl][Cu][Cl]` [CuCl2, CuCl2.2H2O, reference compound], the “% Inhn. attributed to copper chloride alone” value (“% Inhn. attributed” for short) [1] was 11.9%, the “% Control Observed” value [2] was 1% and the “% Control Observed” value [3] was 69%. For the same compound, the “% Inhn. attributed” value [4] was 4.6%, the “effect of copper chloride alone on growth” value ([5]; 1 μM) was “no effect on growth” and the “% Inhibition attributed to copper chloride alone” value ([5]; CuCl2, 1 μM) was 0%. For the same compound, the “% Inhn. attributed” value [6] was 3.3%, the “% Inhn attributed to copper chloride alone” value [7] was 4.5 ± 7.9% and the EC50 [8, 12] was 118000 nM. For the same compound, the EC50 [8, 13] was 72 nM, the EC50 [8, 14] was 172 nM and the EC50 [8, 15] was 1770 nM. The EC50 [8, 16] was 14000 nM, the “LEPTNO % Inhn. Plus Copper Observed (copper chloride alone)” value [9] was 7.1 ± 6.0% and the EC50 [10, 12] was 720000 nM. The EC50 [10, 13] was 71 nM, the EC50 [10, 14] was 189 nM and the EC50 ([10]; mixture with hydrazone compound 16, Hydrazone:Cu ratio 1 to 16, read-out: CuCl2 EC50 (amount of CuCl2 in mixture at EC50)) was 441 nM. The EC50 [10, 15] was 1040 nM, the EC50 ([10]; mixture with hydrazone compound 16, Hydrazone:Cu ratio 1 to 250, read-out: CuCl2 EC50 (amount of CuCl2 in mixture at EC50)) was 1900 nM and the EC50 [10, 16] was 4560 nM. The “% Control of Tomato Late Blight” value ([11]; CuCl2 10 μM alone) was 1.7%, the “% Control of Tomato Late Blight” value ([11]; CuCl2 50 μM alone) was 8.5% and the “% Control of Tomato Late Blight” value ([11]; CuCl2 200 μM alone) was 38.2%. The “% Control of Tomato Late Blight” value ([11]; CuCl2 400 μM alone) was 56.0% and the “% Control of Tomato Late Blight” value ([11]; CuCl2 800 μM alone) was 70.2%.
